{"source": "patent US9499570B2", "about": "“Boron containing small molecules” (priority 2010, dated 2016)", "key": {"[1]": {"test_system": "Brugia malayi", "test": "Brugia malayi in vitro assay, adult female worms", "conditions": "50 uM", "protocol": "Adult female worms are shipped from TRS Labs Inc. (Nonglak Supakorndej, Lab Director, 295 Research Dr., Athens, Ga. 30605; 706-549-0764) via Fed Ex. Individual worms are shipped in 2 mls vials with RPMI on Mondays and arrive at the […] Center lab on Tuesday mornings. Individual worms are poured into each well (24-well tissue culture plates) to avoid handling worms since they are very delicate and easily broken. Transport media is removed and replaced with 0.5 mls of RPMI-1640 (25 mM HEPES, 2 g/L NaHCO3, Antibiotic/Antimycotic, 5% HI FBS). Worms are maintained in a 37° C. 5% CO2 incubator. Compounds are added directly to each duplicate well (5 ul of 5 mM for a final concentration of 50 uM). DMSO (5 ul) is used as a negative control and Ivermectin (Sigma) is used as a positive control at 100 uM/well and 20 uM/well. Adult filarial nematodes can shed/give birth to microfilarial worms (mf) during the course of the assay. Wells were reviewed for the presence of mf, and the viability of mf, by visual observation of the well on the last day of observation (Day 7). Plates are examined once a day for 4-7 days. […] If changes are observed, worms are more closely examined under a dissecting microscope."}, "[2]": {"test_system": "Schistosoma mansoni schistosomula", "test": "Schistosoma mansoni schistosomula phenotype screen in vitro", "conditions": "Second Set, 5 uM, listed as 6-(1-Hydroxy-1,3-dihydro-benzo[c][1,2]oxaborol-5-yloxy)-2-(4-oxo-pentyloxy)-5-ch", "description": "(§1) Puerto Rican isolates of S. mansoni using Biomphalaria glabrata snails and golden hamsters as intermediate and definitive hosts, respectively, were maintained and handled in the University of California-San Francisco Sandler Center for Tropical Medicine. Patent B. glabrata snails (6-8 weeks after exposure to 5-10 infectious miracidia) were induced to shed infective larvae (cercariae) under light stimulus into the surrounding water. Cercariae were washed in rounds of ice-cold water and concentrated through and over sieves of varying pore sizes. They were then mechanically sheared (separation of heads from tails) as described in Colley D G, et al. Exp Parasitol 1974, 35:44-51, in ice-cold Incomplete Medium 169 (as described in Basch P F. J Parasitol 1981, 67:179-185, minus FBS and antibiotics) by passing 15 times through a double headed 22-gauge syringe needle connected to two 10 mL syringes. The resulting cercarial heads (schistosomula) were separated from their tails by swirling in a petri dish. Concentrated schistosomula were added to a sterile 1.5 mL centrifuge tube and allowed to settle over ice. Schistosomula were transferred to a sterile environment and washed 4 times in Incomplete Medium 169 prior to plating.\n(§2) Two sets of screening were performed. In the first set, compounds were screened against schistosomula and observations were made at 24 hours, 2 days, 3 days, 4 days, and 6 days. In the second set, compounds were screened against schistosomula with observations at 24 hours, 2 days, 3 days, and 4 days and adult worms at 7 hours, 24 hours, 4 days, and 6 days.\nPlates contain 200 schistosomula/well in […] complete Basch medium and were maintained at 37° C. in a 5% CO2 atmosphere. All compounds were tested in duplicate with at least two experimental replicates. Compounds and control compounds were added to the plates using the Biomek FXp using 96-well disposable tips. Final concentration of DMSO in each well was 0.5%.\n(§3) A semi-quantitative and controlled nomenclature for phenotypes that can arise as a result of compound insult to both schistosomula and adults was utilized (Abdulla M H, et al., PLoS Negl Trop Dis 2009, 3:e478). Phenotypes were recorded by visual inspection and on a flexible time basis but at least at 24 h and 4 day time-points in the case of large scale screening. […] To help eliminate bias, two screen analysts scored phenotypes ‘blind’ both to knowledge of the contents of each screening plate and the phenotypes scored by his/her colleague. Upon completing their individual assessments, each analyst's ‘hit sheet’ was then compared to derive a ‘consensus hit sheet’. Discrepancies in analysts' hit sheets were re-evaluated under the microscope to eventually make a consensus hit call.\n(§4) Hyper-coiled and coiled represent a verbal description of the visual phenotype as compared to the DMSO control. The + and ++ and +++ means more of the phenotype which preceded it. The − means less of the phenotype which preceded it. Results"}, "[3]": {"test_system": "Schistosoma mansoni adult worms", "test": "Schistosoma mansoni adult worm phenotype screen in vitro", "conditions": "Second Set, 5 uM", "description": "as §1, §2\nGiven the delicacy and size (0.5-1.5 cm in length) of this stage all operations were performed manually by the Sandler Center. 24-well plates were set up with compound (final DMSO concentration=0.5%) containing approximately 5 pairs of worms (S. mansoni has separate sexes) in 2 mL complete Basch medium per well. Plates were maintained at 37° C. in a 5% CO2 atmosphere. All compounds were tested in duplicate with at least two experimental replicates.\nas §3, §4"}}, "note": "Entries after “also recorded” stand apart in the source; their conditions may differ."}
{"smiles": "CC(=O)CCCOc1nc(Oc2ccc3c(c2)COB3O)c(Cl)cc1C#N", "note": "[D231, 5-Chloro-6-(1-hydroxy-1,3-dihydrobenzo[c][1,2]oxaborol-5-yloxy)-2-(4-oxopentyloxy)nicotinonitrile]", "values": [{"measurement": "Presence and viability of microfilarial worms (mf) Day 7", "setting": "[1]; trial one", "value": "no mf and obs"}, {"measurement": "Worm activity / phenotype Day 1", "setting": "[1]; trial one", "value": "hyper-; also recorded: coiled"}, {"measurement": "Worm activity / phenotype Day 2", "setting": "[1]; trial one", "value": "hyper-; also recorded: coiled"}, {"measurement": "Worm activity / phenotype Day 7", "setting": "[1]; trial one", "value": "0, and coiled"}, {"measurement": "Presence and viability of microfilarial worms (mf) Day 7", "setting": "[1]; trial two", "value": "no mf and obs"}, {"measurement": "Worm activity / phenotype Day 1", "setting": "[1]; trial two", "value": "hyper-; also recorded: coiled"}, {"measurement": "Worm activity / phenotype Day 2", "setting": "[1]; trial two", "value": "hyper-; also recorded: coiled"}, {"measurement": "Worm activity / phenotype Day 7", "setting": "[1]; trial two", "value": "0, and coiled"}, {"measurement": "Schistosomula (juvenile infective form) worm screen phenotype 24 h", "setting": "[2]; 24 h", "value": "R, O++,; also recorded: some deg-m"}, {"measurement": "Schistosomula (juvenile infective form) worm screen phenotype 2 d", "setting": "[2]; 2 d", "value": "O++, and R−, and more and deg-M"}, {"measurement": "Schistosomula (juvenile infective form) worm screen phenotype 3 d", "setting": "[2]; 3 d", "value": "O++, R−,; also recorded: more deg-M"}, {"measurement": "Schistosomula (juvenile infective form) worm screen phenotype 4 d", "setting": "[2]; 4 d", "value": "O++, R−,; also recorded: more deg-M"}, {"measurement": "Adult worm screen phenotype 7 h", "setting": "[3]; 7 h, listed as 6-(1-Hydroxy-1,3-dihydro-benzo[c][1,2]oxaborol-5-yloxy)-2-(4-oxo-pentyloxy)-5-ch", "value": "O+++,; also recorded: Sex sep (Sex sep=worm pairs have separated); also recorded: (violent; also recorded: motion)"}, {"measurement": "Adult worm screen phenotype 24 h", "setting": "[3]; 24 h, listed as 6-(1-Hydroxy-1,3-dihydro-benzo[c][1,2]oxaborol-5-yloxy)-2-(4-oxo-pentyloxy)-5-ch", "value": "O+++, Sex; also recorded: sep (violent; also recorded: motion)"}, {"measurement": "Adult worm screen phenotype 4 d", "setting": "[3]; 4 d, listed as 6-(1-Hydroxy-1,3-dihydro-benzo[c][1,2]oxaborol-5-yloxy)-2-(4-oxo-pentyloxy)-5-ch", "value": "O++, sex; also recorded: sep on sides,; also recorded: males dark"}, {"measurement": "Adult worm screen phenotype 6 d*", "setting": "[3]; 6 d", "value": "Dark, S"}]}
